Laboratory results published in PMC7438494 (Communications Biology, 2020).
Several values for one entry are separate records, joined by “and”; a condition that tells them apart may be missing. Equal values may be shown once. Read-outs that look alike come from different tables or passages of the source.

Target: human ATP synthase (Homo sapiens, UniProt P00846+P05496)
Experiment: biochemical
Format: biochemical
[1] = BDQ 0.65 uM, […], frozen human mito, BDQ in DMSO
[2] = BDQ 0.65 uM, cyanide sensitive, 60 min, frozen human mito, BDQ in DMSO
[3] = BDQ 1 uM, […], frozen human mito, BDQ in DMSO
[4] = BDQ 1 uM, cyanide sensitive, human
[5] = BDQ 2 uM, […], frozen human mito, BDQ in DMSO
[6] = BDQ 5 uM, […], frozen human mito, BDQ in DMSO
[7] = BDQ 5 uM, cyanide sensitive, human
[8] = BDQ 10 uM, […], frozen human mito, BDQ in DMSO
[9] = BDQ 10 uM, cyanide sensitive, human
[10] = Human Mito, 1st exp (12-14-18), Bedaquiline 0.05 μM, 60 min
[11] = Human Mito, 2nd exp (12-17-18), Bedaquiline 0.05 μM, 60 min

## COc1nc2ccc(Br)cc2cc1[C@@H](c1ccccc1)[C@@](O)(CCN(C)C)c1cccc2ccccc12 [BDQ, Bedaquiline]
BDQ 0.5 uM, cyanide sensitive, human
  cyanide sensitive % inhibition: 66.6% and 70.0% and 42.0% and 48.8% and 35.1%
[1]
  % activity: 30.2506%
  % inhibition: 69.7494%
  ATP produced, nmol/min/mg: 2.55 nmol/min/mg
  ATP produced, pmol/min/mg: 2547.17 pmol/min/mg
BDQ 0.65 uM, […], frozen human mito, BDQ in DMSO, read-out: % activity
  activity at 0.65 µM: 30.3%
BDQ 0.65 uM, […], frozen human mito, BDQ in DMSO, read-out: % activity, cyanide sensitive
  activity at 0.65 µM: 18.5%
BDQ 0.65 uM, […], frozen human mito, BDQ in DMSO, read-out: % inhibition
  inhibition at 0.65 µM: 69.7%
BDQ 0.65 uM, […], frozen human mito, BDQ in DMSO, read-out: % inhibition, cyanide sensitive
  inhibition at 0.65 µM: 81.5%
[2]
  cyanide sensitive ATP produced, nmol/min/mg: 1.33 nmol/min/mg
  cyanide sensitive ATP produced, pmol/min/mg: 1329.08 pmol/min/mg
BDQ 0.85 uM, cyanide sensitive, human
  cyanide sensitive % inhibition: 67.5% and 100.0% and 66.9%
[3]
  % activity: 17.1322%
  % activity, cyanide sensitive: 3.117%
  % inhibition: 82.8678%
  ATP produced, nmol/min/mg: 1.44 nmol/min/mg
  ATP produced, pmol/min/mg: 1442.57 pmol/min/mg
BDQ 1 uM, […], frozen human mito, BDQ in DMSO, read-out: % activity
  activity at 1 µM: 17.1%
BDQ 1 uM, […], frozen human mito, BDQ in DMSO, read-out: % inhibition
  inhibition at 1 µM: 82.9%
BDQ 1 uM, […], frozen human mito, BDQ in DMSO, read-out: % inhibition, cyanide sensitive
  inhibition at 1 µM: 96.9%
BDQ 1 uM, cyanide sensitive, 60 min, frozen human mito, BDQ in DMSO
  cyanide sensitive ATP produced, pmol/min/mg: 224.48 pmol/min/mg
[4]
  cyanide sensitive % activity: -0.8% and 8.7% and -0.171%
  cyanide sensitive % inhibition: 91.3% and 100.2%
BDQ 1 uM, cyanide sensitive, human, read-out: cyanide sensitive % inhibition
  inhibition at 1 µM: 101%
[5]
  % activity: 12.0221%
  % inhibition: 87.9779%
  ATP produced, nmol/min/mg: 1.01 nmol/min/mg
  ATP produced, pmol/min/mg: 1012.29 pmol/min/mg
BDQ 2 uM, […], frozen human mito, BDQ in DMSO, read-out: % activity
  activity at 2 µM: 12%
BDQ 2 uM, […], frozen human mito, BDQ in DMSO, read-out: % activity, cyanide sensitive
  activity at 2 µM: -2.86%
BDQ 2 uM, […], frozen human mito, BDQ in DMSO, read-out: % inhibition
  inhibition at 2 µM: 88%
BDQ 2 uM, […], frozen human mito, BDQ in DMSO, read-out: % inhibition, cyanide sensitive
  inhibition at 2 µM: 103%
BDQ 2 uM, cyanide sensitive, 60 min, frozen human mito, BDQ in DMSO
  cyanide sensitive ATP produced, pmol/min/mg: -205.80 pmol/min/mg
BDQ 2 uM, cyanide sensitive, human
  cyanide sensitive % inhibition: 98.3% and 117.8% and 98.9% and 97.2% and 102.7%
[6]
  % activity: 17.1136%
  % activity, cyanide sensitive: 3.095%
  % inhibition: 82.8864%
  ATP produced, nmol/min/mg: 1.44 nmol/min/mg
  ATP produced, pmol/min/mg: 1441.00 pmol/min/mg
BDQ 5 uM, […], frozen human mito, BDQ in DMSO, read-out: % activity
  activity at 5 µM: 17.1%
BDQ 5 uM, […], frozen human mito, BDQ in DMSO, read-out: % inhibition
  inhibition at 5 µM: 82.9%
BDQ 5 uM, […], frozen human mito, BDQ in DMSO, read-out: % inhibition, cyanide sensitive
  inhibition at 5 µM: 96.9%
BDQ 5 uM, cyanide sensitive, 60 min, frozen human mito, BDQ in DMSO
  cyanide sensitive ATP produced, pmol/min/mg: 222.91 pmol/min/mg
[7]
  cyanide sensitive % activity: -7.0% and -10.1% and -4.1% and -2.6% and -5.6%
  cyanide sensitive % inhibition: 107.0% and 110.1% and 102.6% and 105.6%
BDQ 5 uM, cyanide sensitive, human, read-out: cyanide sensitive % inhibition
  inhibition at 5 µM: 104%
[8]
  % activity: 14.9815%
  % activity, cyanide sensitive: 0.6024%
  % inhibition: 85.0185%
  ATP produced, nmol/min/mg: 1.26 nmol/min/mg
  ATP produced, pmol/min/mg: 1261.47 pmol/min/mg
BDQ 10 uM, […], frozen human mito, BDQ in DMSO, read-out: % activity
  activity at 10 µM: 15%
BDQ 10 uM, […], frozen human mito, BDQ in DMSO, read-out: % inhibition
  inhibition at 10 µM: 85%
BDQ 10 uM, […], frozen human mito, BDQ in DMSO, read-out: % inhibition, cyanide sensitive
  inhibition at 10 µM: 99.4%
BDQ 10 uM, cyanide sensitive, 60 min, frozen human mito, BDQ in DMSO
  cyanide sensitive ATP produced, pmol/min/mg: 43.39 pmol/min/mg
[9]
  cyanide sensitive % activity: -1.4%
  cyanide sensitive % inhibition: 101.4%
BDQ 10 uM, cyanide sensitive, human, read-out: cyanide sensitive % inhibition
  inhibition at 10 µM: 102%
[10]
  Cyanide sensitive: 4.658 nmol/min/mg
  activity at 0.05 µM: 64.1%
Human Mito, 1st exp (12-14-18), Bedaquiline 0.1 μM, 60 min
  Cyanide sensitive: 6.127 nmol/min/mg
Human Mito, 1st exp (12-14-18), Bedaquiline 0.1 μM, 60 min, read-out: % activity
  activity at 0.1 µM: 84.3%
Human Mito, 1st exp (12-14-18), Bedaquiline 0.2 μM, 60 min
  Cyanide sensitive: 4.027 nmol/min/mg
Human Mito, 1st exp (12-14-18), Bedaquiline 0.2 μM, 60 min, read-out: % activity
  activity at 0.2 µM: 55.4%
Human Mito, 1st exp (12-14-18), Bedaquiline 0.5 μM, 60 min
  Cyanide sensitive: 2.18 nmol/min/mg
Human Mito, 1st exp (12-14-18), Bedaquiline 0.5 μM, 60 min, read-out: % activity
  activity at 0.5 µM: 30%
Human Mito, 1st exp (12-14-18), Bedaquiline 0.65 μM, 60 min
  Cyanide sensitive: -0.9359 nmol/min/mg
Human Mito, 1st exp (12-14-18), Bedaquiline 0.65 μM, 60 min, read-out: % activity
  activity at 0.65 µM: -12.9%
Human Mito, 1st exp (12-14-18), Bedaquiline 0.85 μM, 60 min
  Cyanide sensitive: -0.002656 nmol/min/mg
Human Mito, 1st exp (12-14-18), Bedaquiline 0.85 μM, 60 min, read-out: % activity
  activity at 0.85 µM: -0.0365%
Human Mito, 1st exp (12-14-18), Bedaquiline 2 μM, 60 min
  Cyanide sensitive: -1.2927 nmol/min/mg
Human Mito, 1st exp (12-14-18), Bedaquiline 2 μM, 60 min, read-out: % activity
  activity at 2 µM: -17.8%
Human Mito, 1st exp (12-14-18), Bedaquiline 5 μM, 60 min
  Cyanide sensitive: -0.5097 nmol/min/mg
Human Mito, 1st exp (12-14-18), Bedaquiline 5 μM, 60 min, read-out: % activity
  activity at 5 µM: -7.01%
Human Mito, 1st exp (18_12_14), BDQ 0.1 uM, read-out: Cyanide sensitive % activity
  activity at 0.1 µM: 73.2%
Human Mito, 1st exp (18_12_14), BDQ 0.2 uM, read-out: Cyanide sensitive % activity
  activity at 0.2 µM: 57.7%
Human Mito, 1st exp (18_12_14), BDQ 0.5 uM, read-out: Cyanide sensitive % activity
  activity at 0.5 µM: 44%
Human Mito, 1st exp (18_12_14), BDQ 0.85 uM, read-out: Cyanide sensitive % activity
  activity at 0.85 µM: 16.6%
Human Mito, 1st exp (18_12_14), BDQ 2 uM, read-out: Cyanide sensitive % activity
  activity at 2 µM: -8.33%
[11]
  Cyanide sensitive: 3.788 nmol/min/mg
  activity at 0.05 µM: 43.8%
Human Mito, 2nd exp (12-17-18), Bedaquiline 0.1 μM, 60 min
  Cyanide sensitive: 5.369 nmol/min/mg
Human Mito, 2nd exp (12-17-18), Bedaquiline 0.1 μM, 60 min, read-out: % activity
  activity at 0.1 µM: 62%
